Measured values reported in patent publication US10562869B2, “Oxadiazole compounds” (REMYND NV, priority 2014, dated 2020).

How the values were obtained:
M17_3TAU(P301L) cells = experiment: Retinoic acid-induced cytotoxicity (LDH) in TAU-P301L expressing M17_3TAU(P301L) neuroblastoma cells; format: cell-based; settings: Homo sapiens, Neuroblastoma cell, 168 h; toxicity inhibition (LDH) in M17_3TAU(P301L) cells challenged with retinoic acid, 7 days
Source text: A TAU expression plasmid was constructed by sub-cloning the cDNA encoding for human TAU-P301L protein, wherein proline at position 301 was substituted by a leucine residue, into mammalian expression vector pcDNA3.1 resulting in the plasmid pcDNA3.1-TAUP301L. Plasmid pcDNA3.1-TAU P301L was transfected into human neuroblastoma cells (BE-M17; ATCC No. CRL-2267™) using lipofectamine reagent and subsequently, independent clonal cell lines with the plasmids stably integrated into the genome were selected by antibiotic resistance selection (Geneticin (G418)), resulting in cell line M17_3TAUP301L. Expression of the TAUP301L gene in the M17_3TAUP301L cells was confirmed by Western blot analysis.
M17_3TAU(P301L) cells were treated chronically with retinoic acid (RA) in low serum conditions to induce Alzheimer's disease-like intracellular signaling deregulation leading to increased TAU levels and subsequent cell death. Cytotoxicity of cells was measured by quantification of lactate dehydrogenase (LDH) levels. In dead cells LDH leaked out of the cells into the medium due to a loss of plasma-membrane integrity.
3 days preceding the experiment, a pre-culture of M17_3TAU(P301L) cells was prepared, starting from a stock culture, at a density of 50.000-100.000 cells/cm^2 in culture medium (Optimem Reduced Serum with phenol red (Invitrogen, Cat. 31985-047)) supplemented with 10% fetal calf serum (FCS), 1 mM sodium pyruvate, 1×non-essential amino acids (NEAA), 500 μg/ml G418 and 0.5×(ABAM). At the day of the experiment these precultures were diluted to ˜0.1·10^6 cells/ml in detection medium (Optimem Reduced Serum without phenol red (Gibco, Cat.11058-021) supplemented with 1% fetal calf serum (FCS), 1 mM sodium pyruvate, 1×non-essential amino acids (NEAA), 500 μg/ml G418 and 0.5×ABAM) and 60 μL of this suspension was dispensed per well into a 96-well microtiter plate. After 3 hours of incubation at 37° C./5% CO2 an equal volume of detection medium (without FCS) containing 3.75 μM RA was added and subsequently incubated for 7 days at 37° C./5% CO2. Then LDH activity was determined using the Promega Cytotox 96 Non-Radioactive cytotoxicity assay (Cat. G1780), according to the manufacturer's instructions. Cytotoxicity was defined as the ratio of LDH relative the total LDH in the cells and supernatant.
The assay described above using the M17_3TAU(P301L) cell line allowed to screen compounds for their ability to decrease cytotoxicity in RA-challenged cells. Compounds of the invention were tested for their ability to decrease toxicity at different concentrations, ranging from low non-effective concentrations to high potent concentrations. Afterwards, the dose-dependent inhibition curve was used to calculate their EC50. A compound was considered to be active in this test when it inhibited toxicity by more than 20% relative to untreated M17_3TAU(P301L) cells at a concentration of 10 μM or lower.

M17_3SYN cells = experiment: Paraquat-induced cytotoxicity (LDH) in α-synuclein over-expressing M17_3SYN neuroblastoma cells; format: cell-based, human; settings: Homo sapiens, Neuroblastoma cell, 48 h, toxicity inhibition (LDH) in M17_3SYN cells challenged with 6 mM paraquat, 2 days; read-out: SYN EC50
Source text: A α-synuclein expression plasmid was constructed by subcloning the NcoI/XhoI fragment from 212T-SYN(WT) (Griffioen et al., Biochem Biophys Acta (2006) 1762(3):312-318) containing the cDNA of human wild type α-synuclein correspondingly into a standard mammalian expression vector pcDNA3.1 resulting in plasmid pcDNA3.1-SYNwt. Plasmids pcDNA3.1 and pcDNA3.1-SYNwt were transfected into human neuroblastoma cells (BE-M17; ATCC No. CRL-2267™) using lipofectamine reagent and subsequently, independent clonal cell lines with the plasmids stably integrated into the genome were selected by antibiotic resistance selection (Geneticin (G418)), resulting in cell lines M17.pcDNA3 and M17_3SYN. Overexpression of α-synuclein in the M17_3SYN cell line was confirmed by Western blot analysis.
Due to the high levels of α-synuclein, M17_3SYN cells were sensitive to paraquat, a well-known risk factor Parkinson's disease and of synuclein-dependent neuronal degeneration. Cytotoxicity of cells was measured by quantification of lactate dehydrogenase (LDH) levels. In dead cells, LDH leaked out of the cells into the medium due to a loss of plasma-membrane integrity.
[…], primary pre-cultures of M17.pcDNA3 (as possible control) and M17_3SYN cells were prepared, starting from a stock culture, at a density of 20.000-40.000 cells/cm2 in culture medium (Opti-MEM® Reduced Serum Medium with Phenol Red (Invitrogen, Cat. 31985-047) supplemented with 10% FCS, 1 mM sodium pyruvate, 1×NEAA, 500 μg/ml G418 and 0.5×antibiotic/antimycotic (ABAM)). 3 days later these primary pre-cultures were used as a starting point to make secondary pre-cultures at a density of 50.000-100.000 cells/cm^2. At the day of the experiment these secondary precultures were diluted to ˜0.5·10^6 cells/ml in detection medium (Opti-MEM® Reduced-Serum Medium without Phenol Red (Invitrogen, Cat. 11085-021) supplemented with 10% FCS, 1 mM sodium pyruvate, 1×NEAA, 500 μg/ml G418 and 0.5×ABAM) and 60 μL of this suspension was dispensed per well into a 96-well microtiter plate. After 3 hours of incubation at 37° C./5% CO2 an equal volume of detection medium containing a final concentration of 6 mM Paraquat was added and subsequently incubated for 2 days at 37° C./5% CO2. Then LDH activity was determined using the Promega Cytotox 96 Non-Radioactive cytotoxicity assay (Promega, Cat. G1780), according to the manufacturer's instructions. Cytotoxicity was defined as the ratio of LDH relative to the total LDH in the cells and supernatant.
The assay described above using the M17_3SYN cell line allowed screening compounds for their ability to decrease cytotoxicity in PQ-challenged cells. Compounds of the invention were tested for their ability to decrease toxicity at different concentrations, ranging from low non-effective concentrations to high effective concentrations. Afterwards, a dose-dependent inhibition curve was used to calculate the EC50. A compound was considered to be active in this test when it inhibited toxicity by more than 20% relative to untreated M17_3SYN cells at a concentration of 10 μM or lower.

| SMILES | EC50 (M17_3TAU(P301L) cells) [nM] | EC50 (M17_3SYN cells) [nM] |
| --- | --- | --- |
| Clc1ccccc1CN1CCN(c2nc(-c3ccccc3)no2)CC1 [Cmpd001, 5-(4-(2-Chlorobenzyl)piperazin-1-yl)-3-phenyl-1,2,4-oxadiazole] | 27 | – |
| Cc1ccc(CN2CCN(c3nc(-c4ccccc4)no3)CC2)cc1 [Cmpd002, 5-(4-(4-Methylbenzyl)piperazin-1-yl)-3-phenyl-1,2,4-oxadiazole] | 8 | – |
| Clc1ccc(CCN2CCN(c3nc(-c4ccccc4)no3)CC2)cc1 [Cmpd003, 5-(4-(4-Chlorophenethyl)piperazin-1-yl)-3-phenyl-1,2,4-oxadiazole] | 12 | – |
| COc1cc(CCN2CCN(c3nc(-c4ccccc4)no3)CC2)ccn1 [Cmpd004, 5-(4-(2-(2-Methoxypyridin-4-yl)ethyl)piperazin-1-yl)-3-phenyl-1,2,4-oxadiazole] | 36 | – |
| c1ccc(-c2noc(N3CCN(CCN4CCOCC4)CC3)n2)cc1 [Cmpd005, 4-(2-(4-(3-Pphenyl-1,2,4-oxadiazol-5-yl)piperazin-1-yl)ethyl)morpholine] | 41 | – |
| CC(C)CCN1CCN(c2nc(-c3ccccc3)no2)CC1 [Cmpd006, 5-(4-Isopentylpiperazin-1-yl)-3-phenyl-1,2,4-oxadiazole] | 8 | – |
| Cc1ccc(-c2noc(N3CCN(Cc4ccc5c(c4)OCO5)CC3)n2)cc1 [Cmpd007, 5-(4-(Benzo[d][1,3]dioxol-5-ylmethyl)piperazin-1-yl)-3-(p-tolyl)-1,2,4-oxadiazole] | 352 | – |
| Cc1ccc(-c2noc(N3CCN(Cc4ccc(Cl)cc4)CC3)n2)cc1 [Cmpd008, 5-(4-(4-Chlorobenzyl)piperazin-1-yl)-3-(p-tolyl)-1,2,4-oxadiazole] | 182 | – |
| COc1cccc(CCN2CCN(c3nc(-c4ccc(C)cc4)no3)CC2)c1 [Cmpd009, 5-(4-(3-Methoxyphenethyl)piperazin-1-yl)-3-(p-tolyl)-1,2,4-oxadiazole] | 39 | – |
| Cc1ccc(-c2noc(N3CCN(Cc4ccccc4C)CC3)n2)cc1 [Cmpd010, 5-(4-(2-Methylbenzyl)piperazin-1-yl)-3-(p-tolyl)-1,2,4-oxadiazole] | 306 | – |
| Clc1ccc(CCN2CCN(c3nc(-c4ccc(Cl)cc4)no3)CC2)cc1 [Cmpd019, 5-(4-(4-Chlorophenethyl)piperazin-1-yl)-3-(4-chlorophenyl)-1,2,4-oxadiazole] | 112 | – |
| Clc1ccc(-c2noc(N3CCN(CCc4ccccc4)CC3)n2)cc1 [Cmpd020, 3-(4-Chlorophenyl)-5-(4-phenethylpiperazin-1-yl)-1,2,4-oxadiazole] | 10 | – |
| COc1cccc(CCN2CCN(c3nc(-c4ccc(Cl)cc4)no3)CC2)c1 [Cmpd021, 3-(4-Chlorophenyl)-5-(4-(3-methoxyphenethyl)piperazin-1-yl)-1,2,4-oxadiazole] | 5 | – |
| Cc1ccccc1CN1CCN(c2nc(-c3ccc(Cl)cc3)no2)CC1 [Cmpd022, 3-(4-Chlorophenyl)-5-(4-(2-methylbenzyl)piperazin-1-yl)-1,2,4-oxadiazole] | 35 | – |
| COc1cc(CCN2CCN(c3nc(-c4ccc(Cl)cc4)no3)CC2)ccn1 [Cmpd023, 3-(4-Chlorophenyl)-5-(4-(2-(2-methoxypyridin-4-yl)ethyl)piperazin-1-yl)-1,2,4-oxadiazole] | 18 | – |
| Clc1ccc(CCN2CCN(c3nc(-c4cccc(Cl)c4)no3)CC2)cc1 [Cmpd024, 5-(4-(4-Chlorophenethyl)piperazin-1-yl)-3-(3-chlorophenyl)-1,2,4-oxadiazole] | 119 | – |
| CC(C)(c1ccccc1)c1noc(N2CCN(S(=O)(=O)c3ccc(OC(F)F)cc3)CC2)n1 [Cmpd196, 1-(4-Difluoromethoxy-benzenesulfonyl)-4-[3-(1-methyl-1-phenyl-ethyl)-[1,2,4]oxadiazol-5-yl]-piperazine] | – | 8 |
| COc1ccc(S(=O)(=O)N2CCN(c3nc(C(C)(C)c4ccccc4)no3)CC2)cc1 [Cmpd197, 1-(4-Methoxy-benzenesulfonyl)-4-[3-(1-methyl-1-phenyl-ethyl)-[1,2,4]oxadiazol-5-yl]-piperazine] | – | 2 |
| COc1ccc(S(=O)(=O)N2CCN(c3nc(COc4ccc(Cl)cc4)no3)CC2)cc1 [Cmpd200, 3-((4-Chlorophenoxy)methyl)-5-(4-((4-methoxyphenyl)sulfonyl)piperazin-1-yl)-1,2,4-oxadiazole] | – | 22 |
| COc1ccc(S(=O)(=O)N2CCN(c3nc(COc4cccc(Cl)c4)no3)CC2)cc1 [Cmpd201, 3-((3-Chlorophenoxy)methyl)-5-(4-((4-methoxyphenyl)sulfonyl)piperazin-1-yl)-1,2,4-oxadiazole] | – | 11 |
| COc1ccc(S(=O)(=O)N2CCN(c3nc(COc4ccccc4)no3)CC2)cc1 [Cmpd202, 5-(4-((4-Methoxyphenyl)sulfonyl)piperazin-1-yl)-3-(phenoxymethyl)-1,2,4-oxadiazole] | – | 11 |
| COc1ccc(S(=O)(=O)N2CCN(c3nc(COc4cccnc4)no3)CC2)cc1 [Cmpd204, 5-(4-((4-Methoxyphenyl)sulfonyl)piperazin-1-yl)-3-((pyridin-3-yloxy)methyl)-1,2,4-oxadiazole] | – | 65 |
| CCCc1noc(N2CCN(S(=O)(=O)c3ccc(OC)cc3)CC2)n1 [Cmpd207, 5-(4-((4-Methoxyphenyl)sulfonyl)piperazin-1-yl)-3-propyl-1,2,4-oxadiazole] | – | 406 |
| CCCCc1noc(N2CCN(S(=O)(=O)c3ccc(OC)cc3)CC2)n1 [Cmpd208, 3-Butyl-5-(4-((4-methoxyphenyl)sulfonyl)piperazin-1-yl)-1,2,4-oxadiazole] | – | 98 |
| COc1ccc(S(=O)(=O)N2CCN(c3nc(C(C)(C)C)no3)CC2)cc1 [Cmpd209, 3-(Tert-butyl)-5-(4-((4-methoxyphenyl)sulfonyl)piperazin-1-yl)-1,2,4-oxadiazole] | – | 296 |
| COc1ccc(S(=O)(=O)N2CCN(c3nc(C4CCCCC4)no3)CC2)cc1 [Cmpd210, 3-Cyclohexyl-5-(4-((4-methoxyphenyl)sulfonyl)piperazin-1-yl)-1,2,4-oxadiazole] | – | 327 |
